Where a name gives a salt, the structure may show the parent alone. Read-outs that look alike come from different tables or passages of the source.
How the values were obtained:
plasma protein [1] = assay: Plasma protein binding rate (PPB), CD-1 mice; format: in vitro ADME; details: 2 μM, 4 hours dialysis
Protocol: (§1) 597 μL of blank plasma from CD-1 mice, SD rats, beagle dogs, cynomolgus monkeys and humans were weighed, and the working solution of the assay compound or the working solution of warfarin was added, so that the final concentration of the assay compound and warfarin in the plasma sample was 2 μM. The samples were mixed thoroughly. The final concentration of DMSO as an organic phase was 0.5%; 50 μL of the assay compound and warfarin plasma samples were pipetted into a sample receiving plate, and the corresponding volume of blank plasma or buffer was immediately added, so that the final volume of each sample well was 100 μL, and the volume ratio of plasma:dialysis buffer was 1:1, and then the stop solution was added to these samples. The samples were used as the To sample for recovery and stability determination. The assay compound and warfarin plasma samples were added to the dosing end of each dialysis well, and blank dialysis buffer was added to the receiving end corresponding to the dialysis well. Then the dialysis plate was sealed with a gas permeable membrane and placed in a humidified 5% CO2 incubator, and incubated with shaking at 37° C. and 100 rpm for 4 hours. […] After protein precipitation, all samples were analyzed by LC/MS/MS, and the free rate (% Unbound) of the compound was calculated by the following formula: […]

[2] = Pharmacokinetic (PK) assay in mice; format: in vivo, C57BL6/J strain mice; details: C57BL6/J, plasma; for AUC: mouse
Protocol: Objective of assay: The druggability of compounds was evaluated by measuring their pharmacokinetic properties in different animal species.
Assay Materials: C57BL6/J strain mice, Sprague-Dawley strain rats and beagle dogs.
The pharmacokinetic characteristics of the compound after intravenous and oral administration were assayed in animals using a standard protocol. In the assay, the candidate compound was prepared into a clear solution (intravenous injection) or a homogeneous suspension (oral administration) and administrated to the animal once. Whole blood samples were collected within 24 hours, and centrifuged at 3200 g for 10 minutes. The supernatant was separated to obtain a plasma sample. The blood concentration was quantitatively analyzed by LC-MS/MS analysis method, and pharmacokinetic parameters such as peak concentration, time to peak, clearance rate, half-life, and area under the drug-time curve were calculated.

plasma protein [3] = assay: Plasma protein binding rate (PPB), humans; format: in vitro ADME; details: Human plasma, 2 μM, 4 hours dialysis
Protocol: as §1

plasma protein [4] = assay: Plasma protein binding rate (PPB), cynomolgus monkeys; format: in vitro ADME; details: Cynomolgus monkey plasma, 2 μM, 4 hours dialysis
Protocol: as §1

**Q.** Which “PPB_Unbound (%)” value (plasma protein [1]) does the source give for `Cn1cnc(Cc2cn(Cc3cc(F)c(F)cc3F)c(Nc3cc4cn(C)nc4cc3Cl)nc2=O)n1` [Compound 4 hydrochloride] here?
**A.** 2.8%

**Q.** What about the AUC ([2]; iv, 1 mg/kg, IV, 1 mpk, read-out: AUC) of the same compound?
**A.** 32.8 µM·h

**Q.** And the AUC ([2]; iv, 1 mg/kg, IV, 1 mpk, read-out: AUCfree)?
**A.** 0.92 µM·h

**Q.** What about the AUC ([2]; po, 5 mg/kg, PO, 5 mpk, read-out: AUC) of the same compound?
**A.** 145 µM·h

**Q.** And the AUC ([2]; po, 5 mg/kg, PO, 5 mpk, read-out: AUCfree)?
**A.** 4.1 µM·h

**Q.** What about the Vd ([2]; 1 mg/kg, Mouse, IV, 1 mpk) of the same compound?
**A.** 0.23 L/kg

**Q.** And the clearance ([2]; 1 mg/kg, Mouse, IV, 1 mpk)?
**A.** 0.98 mL/min/kg

**Q.** And the half-life ([2]; 1 mg/kg, Mouse, IV, 1 mpk)?
**A.** 2.6 h

**Q.** What about the Cmax ([2]; 5 mg/kg, Mouse, PO, 5 mpk) of the same compound?
**A.** 31 µM

**Q.** What about the Tmax ([2]; 5 mg/kg, Mouse, PO, 5 mpk) of the same compound?
**A.** 0.75 h

**Q.** And the bioavailability ([2]; 5 mg/kg, Mouse, PO, 5 mpk)?
**A.** 88%

**Q.** What about the half-life ([2]; 5 mg/kg, Mouse, PO, 5 mpk) of the same compound?
**A.** 2.7 h

**Q.** What about the “PPB_Unbound (%)” value (plasma protein [3]) of the same compound?
**A.** 24.3%

**Q.** What about the “PPB_Unbound (%)” value (plasma protein [4]) of the same compound?
**A.** 18.8%

Source: patent publication US20250163029A1, “PYRIDONE OR PYRIMIDONE DERIVATIVE AND APPLICATION THEREOF” (Medshine Discovery Inc., priority 2022, published 2025)
